Earlier results, collected in PubChem BioAssay AID1259410 (Chemical Carcinogenesis Research Information System (CCRIS), 2018).

System: rodent tumor promotion studies, tumor incidence
Experiment: CCRIS tumor promotion studies

C=O
outcome (Carcinogen: Benzo[a]pyrene, 50-32-8, Doses [Carcinogen]: 150 mg applied once, Doses [Promoter]: 0 (acetone), 0.1, 0.5, 1.0 mg/mouse, 3x.wk for 26 wk, study duration 26 wk, Doses [Promoter]: 0 (acetone), 0.1, 0.5, 1.0 mg/mouse, 3x.wk for 26 wk, study duration 26 wk, Route [Carcinogen]: Not reported, Route [Promoter]: Dermal, Species: Mouse, Strain/Sex: CD-1/Female (30/Group)): skin: results were negative
outcome (Carcinogen: N,N-Diethylnitrosamine, 55-18-5, Doses [Carcinogen]: 0.5 mg injections once a wk for 10 wk, Doses [Promoter]: 30 ppm weekly doses in various combinations from wk 12 for life of the animal, Route [Carcinogen]: Subcutaneous, Route [Promoter]: Inhalation, Species: Hamster, Strain/Sex: Syrian golden/Male (50/Group_): nasal epithelium: results were negative

O=c1[nH]cnc2[nH]ncc12
outcome (Carcinogen: N-(4-(5-NITRO-2-FURYL)-2-THIAZOLYL)FORMAMIDE, Doses [Carcinogen]: DIET, Doses [Promoter]: IN DIET, Route [Carcinogen]: ORAL, Route [Promoter]: ORAL, Species: RAT, Strain/Sex: FEMALE): urinary bladder

CC[C@@H](C)[C@H](NC(=O)CN)C(=O)N[C@H](C(=O)N[C@@H](CCC(=O)O)C(=O)N[C@@H](CCC(N)=O)C(=O)N[C@H]1CSSC[C@H]2NC(=O)[C@H]([C@H](C)CC)NC(=O)[C@H](CO)NC(=O)[C@H]([C@H](C)O)NC(=O)[C@H](CSSC[C@H](NC(=O)[C@H](CC(C)C)NC(=O)[C@H](Cc3c[nH]cn3)NC(=O)[C@H](CCC(N)=O)NC(=O)[C@@H](NC(=O)[C@@H](NC(=O)[C@@H](N)Cc3ccccc3)C(C)C)C(N)=O)C(=O)NCC(=O)N[C@@H](CO)C(=O)N[C@@H](Cc3c[nH]cn3)C(=O)N[C@@H](CC(C)C)C(=O)N[C@@H](C(C)C)C(=O)N[C@@H](CCC(=O)O)C(=O)N[C@@H](C)C(=O)N[C@@H](CC(C)C)C(=O)N[C@@H](Cc3ccc(O)cc3)C(=O)N[C@@H](CC(C)C)C(=O)N[C@@H](C(C)C)C(=O)N[C@H](C(=O)NCC(=O)N[C@@H](CCC(=O)O)C(=O)N[C@@H](CCCNC(=N)N)C(=O)NCC(=O)N[C@@H](Cc3ccccc3)C(=O)N[C@@H](Cc3ccccc3)C(=O)N[C@@H](Cc3ccc(O)cc3)C(=O)N[C@H](C(=O)N3CCC[C@H]3C(=O)N[C@@H](CCCCN)C(=O)N[C@H](C(=O)O)[C@H](C)O)[C@H](C)O)CSSC[C@@H](C(=O)N[C@@H](CC(N)=O)C(=O)O)NC(=O)[C@H](Cc3ccc(O)cc3)NC(=O)[C@H](CC(N)=O)NC(=O)[C@H](CCC(=O)O)NC(=O)[C@H](CC(C)C)NC(=O)[C@H](CCC(N)=O)NC(=O)[C@H](Cc3ccc(O)cc3)NC(=O)[C@H](CC(C)C)NC(=O)[C@H](CO)NC2=O)NC1=O)C(C)C
outcome (Carcinogen: 7,12-DIMETHYLBENZ[A]ANTHRACENE, 57-97-6, Doses [Carcinogen]: 20 MG IN 4 ML OLIVE OIL ONCE, Doses [Promoter]: 0, 10 I.U./D BEGINNING 4 WK POST CARCINOGEN DOSE AND CONTINUING FOR DURATION OF STUDY (STUDY DURATION: 6 MO), Route [Carcinogen]: GAVAGE, Route [Promoter]: SUBCUTANEOUS, Species: RAT, Strain/Sex: SWISS/FEMALE): mammary gland: tumor

CCOc1ccc(NC(C)=O)cc1
outcome (Carcinogen: DIHYDROXY-DI-N-PROPYLNITROSAMINE, 53609-64-6, URACIL, 66-22-8, Carcinogen: DIHYDROXY-DI-N-PROPYLNITROSAMINE, 53609-64-6, URACIL, 66-22-8, Doses [Carcinogen]: 0.1% DHPN IN DRINKING WATER AND 3% URACIL IN THE DIET FOR 4 WK, Doses [Promoter]: 0, 2% IN DIET BEGINNING 1 WK POST CARCINOGEN TREATMENT AND CONTINUING FOR 35 WK (STUDY DURATION: 40 WK), Route [Carcinogen]: ORAL, ORAL, Route [Promoter]: ORAL, Species: RAT, Strain/Sex: F344/MALE): kidney: adenoma or adenocarcinoma; urinary bladder: papilloma
outcome (Carcinogen: N-BUTYL-N-(4-HYDROXYBUTYL)NITROSAMINE, 3817-11-6, Doses [Carcinogen]: 0.05% IN DRINKING WATER FOR 4 WK, Doses [Promoter]: 0, 2% IN DIET FOR 8 WK AND 3 WK WITH A 4 WK INTERVAL BETWEEN TREATMENTS ADMINISTERED PRIOR TO CARCINOGEN TREATMENT (STUD, Route [Carcinogen]: ORAL, Route [Promoter]: ORAL, Species: MOUSE, Strain/Sex: NON/SHI/MALE): renal pelvis: carcinoma
outcome (Carcinogen: N-BUTYL-N-(4-HYDROXYBUTYL)NITROSAMINE, Doses [Carcinogen]: 0.01, 0.05% IN DRINKING WATER FOR 4 WK, Doses [Promoter]: 2.5% IN DIET FOR 30 WK FOLLOWED BY CONTROL DIET FOR 6 WK, Route [Carcinogen]: ORAL, Route [Promoter]: ORAL, Species: RAT, Strain/Sex: WISTAR/MALE): urinary bladder: papilloma, carcinoma

CSCC[C@H](NC(=O)[C@H](CC(C)C)NC(=O)CNC(=O)[C@H](Cc1ccccc1)NC(=O)[C@H](Cc1ccccc1)NC(=O)[C@H](CCC(N)=O)NC(=O)[C@H](CCC(N)=O)NC(=O)[C@@H]1CCCN1C(=O)[C@H](CCCCN)NC(=O)[C@@H]1CCCN1C(=O)[C@@H](N)CCCN=C(N)N)C(N)=O
outcome (Carcinogen: N-METHYL-N'-NITRO-N-NITROSOGUANIDINE, 70-25-7, Doses [Carcinogen]: 50 UG/ML IN DRINKING WATER FOR 25 WK, Doses [Promoter]: 0, 12 UG/KG BW 1/2 D FOR 26 WK BEGINNING POST CARCINOGEN TREATMENT (STUDY DURATION: 52 WK), Route [Carcinogen]: ORAL, Route [Promoter]: SUBCUTANEOUS, Species: RAT, Strain/Sex: WISTAR/MALE, FEMALE): stomach: tumor

CCCCCCCCCCCC(=O)OCCOC[C@@H](OCCO)[C@H]1OC[C@@H](OCCO)[C@H]1OCCO
outcome (Carcinogen: 7,12-DIMETHYLBENZ(A)ANTHRACENE, Doses [Carcinogen]: TOP, Route [Carcinogen]: DERMAL, Route [Promoter]: DERMAL, Species: MOUSE, Strain/Sex: MALE): integumentary system (skin)

O=C(CO)[C@@H](O)[C@H](O)[C@H](O)CO
outcome (Carcinogen: N-NITROSOMORPHOLINE, 59-89-2, Doses [Carcinogen]: 100 MG/KG/WK IN DRINKING WATER FOR 7 WK, Doses [Promoter]: 0, 120 G/L IN DRINKING WATER AD LIBITUM BEGINNING 2 D AFTER LAST CARCINOGEN DOSE (STUDY DURATION: 501 D), Route [Carcinogen]: ORAL, Route [Promoter]: ORAL, Species: RAT, Strain/Sex: SPRAGUE-DAWLEY/MALE): liver: hepatocellular carcinoma

CC(=O)O
outcome (Carcinogen: LEAD SUBACETATE, 1335-32-6, Doses [Carcinogen]: 1% IN DIET FOR 18 MO, Doses [Promoter]: 0, 0.3, 1, 3, 6% IN DIET FOR 18 MO (STUDY DURATION: 79 WK), Doses [Promoter]: 0, 0.3, 1, 3, 6% IN DIET FOR 18 MO (STUDY DURATION: 79 WK), Route [Carcinogen]: ORAL, Route [Promoter]: ORAL, Species: RAT, Strain/Sex: SPRAGUE-DAWLEY/MALE): kidney: tumor

CCOC(=O)C#Cc1ccccc1
outcome (Carcinogen: 7,12-DIMETHYLBENZ[A]ANTHRACENE, 57-97-6, Doses [Carcinogen]: 10 NMOL (2.5 UG IN 200 µL ACETONE), Doses [Promoter]: 5 MG 2/WK FOR 40 WK BEGINNING 2 WK POST CARCINOGEN TREATMENT (STUDY DURATION: 42 WK), Route [Carcinogen]: DERMAL, Route [Promoter]: DERMAL, Species: MOUSE, Strain/Sex: SENCAR/FEMALE): skin: tumor
outcome (Carcinogen: 7,12-DIMETHYLBENZ[A]ANTHRACENE, 57-97-6, Doses [Carcinogen]: 100 NMOL, Doses [Promoter]: 3, 5 MG 2/WK FOR 40 WK BEGINNING 2 WK POST CARCINOGEN TREATMENT (STUDY DURATION: 42 WK), Route [Carcinogen]: DERMAL, Route [Promoter]: DERMAL, Species: MOUSE, Strain/Sex: SENCAR/FEMALE): skin: tumor

CC/C(=C(\c1ccccc1)c1ccc(OCCN(C)C)cc1)c1ccccc1
outcome (Carcinogen: P-DIMETHYLAMINOAZOBENZENE [60-11-7], Doses [Carcinogen]: 0.5% IN DIET FOR 28 WK (STUDY DURATION: 20 WK), Doses [Promoter]: 0, 0.025% IN DIET FOR 25 WK BEGINNING 3 WK POST FIRST CARCINOGEN DOSE (STUDY DURATION: 28 WK), Route [Carcinogen]: ORAL, Route [Promoter]: ORAL, Species: MOUSE, Strain/Sex: CF-1/MALE): liver: hepatocellular carcinoma

CC(C)(C)NC(=O)[C@H]1CC[C@H]2[C@@H]3CC=C4C=C(C(=O)O)CC[C@]4(C)[C@H]3CC[C@]12C
outcome (Carcinogen: 3,2'-DIMETHYL-4-AMINOBIPHENYL, 13394-86-0, Doses [Carcinogen]: 50 MG/KG BW ONCE/2 WK FOR FIRST 20 WK, Doses [Promoter]: 0, 10, 50 MG/KG BW BY GAVAGE 3X/WK FOR 40 WK BEGINNING 20 WK POST CARCINOGEN TREATMENT (STUDY DURATION: 60 WK), Doses [Promoter]: 0, 10, 50 MG/KG BW BY GAVAGE 3X/WK FOR 40 WK BEGINNING 20 WK POST CARCINOGEN TREATMENT (STUDY DURATION: 60 WK), Route [Carcinogen]: SUBCUTANEOUS, Route [Promoter]: ORAL, Species: RAT, Strain/Sex: F344/MALE): prostate (ventral): adenocarcinoma

O=S(=O)(O)NC1CCCCC1
outcome (Carcinogen: METHYLNITROSOUREA, Doses [Carcinogen]: BLADDER IMP, Doses [Promoter]: IN DIET, Route [Carcinogen]: BLADDER IMPLANT, Route [Promoter]: ORAL, Species: RAT, Strain/Sex: WISTAR/FEMALE): urinary bladder

CC1=C(/C=C/C(C)=C/C=C/C(C)=C/C(=O)O)C(C)(C)CCC1
outcome (Carcinogen: 7,12-DIMETHYLBENZ[A]ANTHRACENE, 57-97-6, Doses [Carcinogen]: 50 NMOL IN 200 µL ACETONE 2/WK FOR 16 WK, Doses [Promoter]: 0, 0.5, 25 NMOL IN 200 µL ACETONE APPLIED 1 HR PRIOR TO CARCINOGEN DOSES 2/WK FOR 16 WK (STUDY DURATION: 16 WK), Doses [Promoter]: 0, 0.5, 25 NMOL IN 200 µL ACETONE APPLIED 1 HR PRIOR TO CARCINOGEN DOSES 2/WK FOR 16 WK (STUDY DURATION: 16 WK), Route [Carcinogen]: DERMAL, Route [Promoter]: DERMAL, Species: MOUSE, Strain/Sex: CD-1/FEMALE): skin: tumors

CNCCCN1c2ccccc2CCc2ccccc21
outcome (Carcinogen: AZOXYMETHANE, 25843-45-2, Doses [Carcinogen]: 7.4 MG/KG BW IN 0.9% SALINE 1/WK FOR 10 WK, Doses [Promoter]: 0, 10 MG/KG BW IN 0.9% SALINE 1/2 D FOR 10 WK ON SAME DAY AS CARCINOGEN ADMINISTRATION (STUDY DURATION: 35 WK), Route [Carcinogen]: SUBCUTANEOUS, Route [Promoter]: SUBCUTANEOUS, Species: RAT, Strain/Sex: WISTAR/MALE): colon: tumor
